Experimental data from patent EP4745137A1 (Gluetacs Therapeutics (Shanghai) Co., Ltd., priority 2023, dated 2025).

What was measured:
IKZF1 = biological target: T1, IKZF1 (Homo sapiens, UniProt Q13422+Q96SW2); test: Western-blot assay of substrate protein degradation in hPBMCs, IKZF1; type: cell-based; conditions: 24 hours of compound treatment
T1 construct: endogenous in cells; host or cells: hPBMCs (Milecell Biotechnologies)

[1] = biological target: T2, human Cereblon WT GST-tagged protein (Homo sapiens, UniProt Q96SW2); test: CRBN-binding affinity by HTRF (CEREBLON BINDING kit); conditions: HTRF inhibitory activity, CEREBLON BINDING kit; read-out: HTRF IC50
T2 construct: purchased CISBIO 64BDCRBNPEH

WEE1 = biological target: T3, WEE1 (Homo sapiens, UniProt P30291+Q96SW2); test: Western-blot assay of substrate protein degradation in hPBMCs, WEE1; type: cell-based; conditions: 24 hours of compound treatment
T3 construct: endogenous in cells; host or cells: hPBMCs (Milecell Biotechnologies)

CK1α = biological target: T4, CK1α (Homo sapiens, UniProt P48729+Q96SW2); test: Western-blot assay of substrate protein degradation in hPBMCs, CK1α; type: cell-based; conditions: 24 hours of compound treatment
T4 construct: endogenous in cells; host or cells: hPBMCs (Milecell Biotechnologies)

IKZF3 = biological target: T5, IKZF3 (Homo sapiens, UniProt Q96SW2+Q9UKT9); test: Western-blot assay of substrate protein degradation in hPBMCs, IKZF3; type: cell-based; conditions: 24 hours of compound treatment
T5 construct: endogenous in cells; host or cells: hPBMCs (Milecell Biotechnologies)

IKZF2 = biological target: T6, IKZF2 (Homo sapiens, UniProt Q96SW2+Q9UKS7); test: Western-blot assay of substrate protein degradation in hPBMCs, IKZF2; type: cell-based; conditions: 24 hours of compound treatment
T6 construct: endogenous in cells; host or cells: hPBMCs (Milecell Biotechnologies)

GSPT1 = biological target: T7, GSPT1 (Homo sapiens, UniProt P15170+Q96SW2); test: Western-blot assay of substrate protein degradation in hPBMCs, GSPT1; type: cell-based; conditions: 24 hours of compound treatment
T7 construct: endogenous in cells; host or cells: hPBMCs (Milecell Biotechnologies)

[2] = compounds tested at 50 nM and 500 nM (concentration of the table not stated)
[3] = 50 nM and 500 nM tested (concentration behind the class not stated)

T1 sequence (Q13422 whole entry): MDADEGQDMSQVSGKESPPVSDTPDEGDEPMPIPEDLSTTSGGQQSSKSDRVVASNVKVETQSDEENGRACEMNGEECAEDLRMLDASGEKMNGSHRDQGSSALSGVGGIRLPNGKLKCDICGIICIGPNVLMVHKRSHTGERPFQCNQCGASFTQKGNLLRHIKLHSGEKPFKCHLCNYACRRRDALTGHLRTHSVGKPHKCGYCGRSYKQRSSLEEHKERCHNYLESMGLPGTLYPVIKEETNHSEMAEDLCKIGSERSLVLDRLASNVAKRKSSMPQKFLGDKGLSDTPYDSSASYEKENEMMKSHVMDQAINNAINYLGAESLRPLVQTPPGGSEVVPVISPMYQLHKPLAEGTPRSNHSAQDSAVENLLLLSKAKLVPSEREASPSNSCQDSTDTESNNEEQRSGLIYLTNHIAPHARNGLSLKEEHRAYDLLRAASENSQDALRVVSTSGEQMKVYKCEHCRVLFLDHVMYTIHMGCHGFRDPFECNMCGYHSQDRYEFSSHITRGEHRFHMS
T1 sequence (Q96SW2 whole entry): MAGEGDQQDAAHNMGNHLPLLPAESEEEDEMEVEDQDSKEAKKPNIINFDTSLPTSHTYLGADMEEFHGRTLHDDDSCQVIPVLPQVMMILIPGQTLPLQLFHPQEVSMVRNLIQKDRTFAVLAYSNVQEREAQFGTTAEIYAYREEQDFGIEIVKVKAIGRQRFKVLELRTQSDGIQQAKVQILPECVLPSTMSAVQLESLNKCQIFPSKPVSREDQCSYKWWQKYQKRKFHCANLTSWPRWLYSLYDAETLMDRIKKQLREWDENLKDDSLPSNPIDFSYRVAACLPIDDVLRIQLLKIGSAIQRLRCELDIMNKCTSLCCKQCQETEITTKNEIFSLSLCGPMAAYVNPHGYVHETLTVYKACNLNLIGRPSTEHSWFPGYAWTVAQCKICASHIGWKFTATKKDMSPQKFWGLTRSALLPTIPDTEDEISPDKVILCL
T1 sequence (Q16531 whole entry partner): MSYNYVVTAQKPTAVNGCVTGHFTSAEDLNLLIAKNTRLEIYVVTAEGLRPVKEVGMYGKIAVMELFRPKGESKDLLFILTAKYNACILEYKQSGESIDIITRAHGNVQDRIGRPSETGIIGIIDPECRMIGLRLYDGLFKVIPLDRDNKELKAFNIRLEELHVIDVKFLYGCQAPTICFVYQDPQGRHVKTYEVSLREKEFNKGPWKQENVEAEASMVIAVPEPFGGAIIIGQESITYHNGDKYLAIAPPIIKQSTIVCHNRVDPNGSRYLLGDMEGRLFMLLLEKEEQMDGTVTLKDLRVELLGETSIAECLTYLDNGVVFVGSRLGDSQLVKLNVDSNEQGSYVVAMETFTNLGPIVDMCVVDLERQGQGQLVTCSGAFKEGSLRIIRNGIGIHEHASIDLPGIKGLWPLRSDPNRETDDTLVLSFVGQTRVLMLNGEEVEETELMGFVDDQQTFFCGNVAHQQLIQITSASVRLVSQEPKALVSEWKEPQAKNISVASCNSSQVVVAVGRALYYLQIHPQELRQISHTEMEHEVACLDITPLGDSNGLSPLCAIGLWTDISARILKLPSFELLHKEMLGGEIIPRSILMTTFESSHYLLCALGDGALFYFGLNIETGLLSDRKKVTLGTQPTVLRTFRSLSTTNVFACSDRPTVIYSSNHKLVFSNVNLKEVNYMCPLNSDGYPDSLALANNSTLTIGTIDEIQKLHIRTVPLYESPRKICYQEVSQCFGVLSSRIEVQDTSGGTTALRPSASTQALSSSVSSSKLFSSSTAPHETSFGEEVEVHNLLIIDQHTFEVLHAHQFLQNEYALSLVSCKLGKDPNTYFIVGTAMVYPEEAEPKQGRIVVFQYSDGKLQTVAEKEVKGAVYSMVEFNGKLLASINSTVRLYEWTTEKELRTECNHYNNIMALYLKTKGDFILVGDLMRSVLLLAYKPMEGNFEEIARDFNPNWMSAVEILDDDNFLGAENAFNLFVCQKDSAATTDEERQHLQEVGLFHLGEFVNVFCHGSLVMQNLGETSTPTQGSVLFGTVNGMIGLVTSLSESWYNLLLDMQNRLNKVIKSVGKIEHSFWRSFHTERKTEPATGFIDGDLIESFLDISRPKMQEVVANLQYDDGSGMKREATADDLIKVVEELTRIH
T6 sequence (Q9UKS7 whole entry): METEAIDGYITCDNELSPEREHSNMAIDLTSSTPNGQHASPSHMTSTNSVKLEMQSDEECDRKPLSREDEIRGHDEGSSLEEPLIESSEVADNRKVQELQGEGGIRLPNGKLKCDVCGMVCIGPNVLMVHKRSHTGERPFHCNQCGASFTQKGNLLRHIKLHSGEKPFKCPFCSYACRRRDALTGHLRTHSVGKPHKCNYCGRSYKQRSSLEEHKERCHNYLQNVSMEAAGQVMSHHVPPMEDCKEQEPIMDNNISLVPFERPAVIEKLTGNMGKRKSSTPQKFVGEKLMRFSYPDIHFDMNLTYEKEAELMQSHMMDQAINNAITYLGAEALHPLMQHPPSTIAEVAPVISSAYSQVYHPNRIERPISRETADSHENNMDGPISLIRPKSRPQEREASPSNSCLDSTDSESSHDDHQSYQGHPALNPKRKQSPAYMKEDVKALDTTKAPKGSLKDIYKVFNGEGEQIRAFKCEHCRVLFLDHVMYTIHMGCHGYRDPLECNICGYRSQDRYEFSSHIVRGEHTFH
T6 sequence (Q96SW2 whole entry): as the sequence (Q96SW2 whole entry) above
T6 sequence (Q16531 whole entry partner): as the sequence (Q16531 whole entry partner) above
T5 sequence (Q9UKT9 whole entry): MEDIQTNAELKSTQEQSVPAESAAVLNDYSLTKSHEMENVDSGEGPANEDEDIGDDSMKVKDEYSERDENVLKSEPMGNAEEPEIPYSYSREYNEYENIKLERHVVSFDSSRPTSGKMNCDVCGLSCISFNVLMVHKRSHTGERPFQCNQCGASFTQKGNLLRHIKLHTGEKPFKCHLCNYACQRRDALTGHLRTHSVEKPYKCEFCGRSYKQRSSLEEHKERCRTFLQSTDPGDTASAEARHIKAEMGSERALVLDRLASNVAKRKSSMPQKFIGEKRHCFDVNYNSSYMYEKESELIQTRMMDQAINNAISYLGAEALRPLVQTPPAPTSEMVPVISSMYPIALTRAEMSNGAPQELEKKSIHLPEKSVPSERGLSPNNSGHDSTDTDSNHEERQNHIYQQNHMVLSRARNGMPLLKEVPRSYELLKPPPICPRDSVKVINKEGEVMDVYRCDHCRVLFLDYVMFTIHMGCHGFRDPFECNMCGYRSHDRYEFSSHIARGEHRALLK
T5 sequence (Q96SW2 whole entry): as the sequence (Q96SW2 whole entry) above
T5 sequence (Q16531 whole entry partner): as the sequence (Q16531 whole entry partner) above
T3 sequence (P30291 whole entry): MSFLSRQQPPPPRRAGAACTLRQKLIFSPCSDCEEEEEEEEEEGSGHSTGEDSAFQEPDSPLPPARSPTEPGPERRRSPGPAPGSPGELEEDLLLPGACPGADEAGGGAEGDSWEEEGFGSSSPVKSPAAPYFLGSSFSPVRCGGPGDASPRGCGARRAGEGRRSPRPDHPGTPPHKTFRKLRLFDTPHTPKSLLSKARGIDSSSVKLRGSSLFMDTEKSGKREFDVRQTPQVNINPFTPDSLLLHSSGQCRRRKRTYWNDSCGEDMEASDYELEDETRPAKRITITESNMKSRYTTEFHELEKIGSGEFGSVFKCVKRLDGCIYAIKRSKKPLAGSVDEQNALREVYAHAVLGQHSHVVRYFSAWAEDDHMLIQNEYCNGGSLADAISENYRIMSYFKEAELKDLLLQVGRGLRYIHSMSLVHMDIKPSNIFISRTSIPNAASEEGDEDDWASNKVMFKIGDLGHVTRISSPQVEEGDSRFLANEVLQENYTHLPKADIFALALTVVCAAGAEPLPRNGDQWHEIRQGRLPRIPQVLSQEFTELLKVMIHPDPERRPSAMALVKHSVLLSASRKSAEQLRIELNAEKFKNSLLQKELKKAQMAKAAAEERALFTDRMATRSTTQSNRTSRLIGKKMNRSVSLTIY
T3 sequence (Q96SW2 whole entry): as the sequence (Q96SW2 whole entry) above
T3 sequence (Q16531 whole entry partner): as the sequence (Q16531 whole entry partner) above
T7 sequence (P15170 whole entry): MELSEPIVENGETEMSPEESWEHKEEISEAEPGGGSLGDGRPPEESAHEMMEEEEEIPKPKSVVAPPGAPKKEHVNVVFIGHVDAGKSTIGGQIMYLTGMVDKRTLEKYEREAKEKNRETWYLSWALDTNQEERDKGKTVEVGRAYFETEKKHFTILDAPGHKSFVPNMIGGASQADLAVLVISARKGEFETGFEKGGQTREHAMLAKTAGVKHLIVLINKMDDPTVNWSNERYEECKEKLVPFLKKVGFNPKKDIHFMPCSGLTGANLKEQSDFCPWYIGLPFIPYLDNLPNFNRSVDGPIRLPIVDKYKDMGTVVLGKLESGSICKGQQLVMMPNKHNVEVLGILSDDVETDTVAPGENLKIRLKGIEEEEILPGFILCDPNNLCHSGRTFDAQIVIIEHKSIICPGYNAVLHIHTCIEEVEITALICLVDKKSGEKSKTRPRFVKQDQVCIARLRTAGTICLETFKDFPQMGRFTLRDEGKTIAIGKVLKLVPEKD
T7 sequence (Q96SW2 whole entry): as the sequence (Q96SW2 whole entry) above
T7 sequence (Q16531 whole entry partner): as the sequence (Q16531 whole entry partner) above
T2 sequence (Q96SW2 whole entry): as the sequence (Q96SW2 whole entry) above

| SMILES | IKZF 1 substrate protein remaining % (IKZF1; [2]) | IC50 [1] | Weel substrate protein remaining % (WEE1; [2]) | CK1a substrate protein remaining % (CK1α; [2]) | IKZF3 substrate protein remaining % (IKZF3; [2]) | IKZF2 substrate protein remaining % (IKZF2; [2]) | GSPT1 substrate protein remaining % (GSPT1; [2]) | IKZF 1 substrate protein remaining % (IKZF1; [3]) | Weel substrate protein remaining % (WEE1; [3]) | CK1a substrate protein remaining % (CK1α; [3]) | IKZF3 substrate protein remaining % (IKZF3; [3]) | IKZF2 substrate protein remaining % (IKZF2; [3]) | GSPT1 substrate protein remaining % (GSPT1; [3]) |
| --- | --- | --- | --- | --- | --- | --- | --- | --- | --- | --- | --- | --- | --- |
| O=C1CCC(N2Cc3cc(CN4CCN(c5ncc(Cl)cc5Cl)CC4)ccc3C2=O)C(=O)N1 (centres unmarked) [GT-04479, 3-(5-((4-(3,5-dichloropyridin-2-yl)piperazin-1-yl)methyl)-1-oxoisoindolin-2-yl)piperidine-2,6-dione] | B (80%< substrate protein remaining %≤ 100%) | 500 to 1000 nM | B (80%< substrate protein remaining %≤ 100%) | B (80%< substrate protein remaining %≤ 100%) | A (0% ≤ substrate protein remaining % ≤ 80%) | A (0% ≤ substrate protein remaining % ≤ 80%) | A (0% ≤ substrate protein remaining % ≤ 80%) | – | – | – | – | – | – |
| O=C1CCC(N2Cc3cc(CN4CCC(=C5CCOc6cc(F)ccc65)CC4)ccc3C2=O)C(=O)N1 (centres unmarked) [GT-04649, 3-(5-((4-(7-fluorochroman-4-ylidene)piperidin-1-yl)methyl)-1-oxoisoindolin-2-yl)piperidine-2,6-dione] | A (0% ≤ substrate protein remaining % ≤ 80%) | < 500 nM | B (80%< substrate protein remaining %≤ 100%) | B (80%< substrate protein remaining %≤ 100%) | A (0% ≤ substrate protein remaining % ≤ 80%) | A (0% ≤ substrate protein remaining % ≤ 80%) | A (0% ≤ substrate protein remaining % ≤ 80%) | – | – | – | – | – | – |
| O=C1CCC(N2C(=O)c3ccc(CN4CCN(c5ncnc6sc7c(c56)CCC7)CC4)cc3C2=O)C(=O)N1 (centres unmarked) [GT-06565, 5-((4-(6,7-dihydro-5H-cyclopenta[4,5]thieno[2,3-d]pyrimidin-4-yl)piperazin-1-yl)methyl)-2-(2,6-dioxopiperidin-3-yl)isoindoline-1,3-dione] | – | 1000 to 1500 nM | – | – | – | – | – | A (0% ≤ substrate protein remaining % ≤ 80%) | A (0% ≤ substrate protein remaining % ≤ 80%) | A (0% ≤ substrate protein remaining % ≤ 80%) | A (0% ≤ substrate protein remaining % ≤ 80%) | A (0% ≤ substrate protein remaining % ≤ 80%) | A (0% ≤ substrate protein remaining % ≤ 80%) |
| O=C1CCC(N2Cc3cc(CN4CCN(c5cnccn5)CC4)ccc3C2=O)C(=O)N1 (centres unmarked) [GT-04483, 3-(1-oxo-5-((4-(pyrazin-2-yl)piperazin-1-yl)methyl)isoindolin-2-yl)piperidine-2,6-dione] | B (80%< substrate protein remaining %≤ 100%) | 500 to 1000 nM | A (0% ≤ substrate protein remaining % ≤ 80%) | A (0% ≤ substrate protein remaining % ≤ 80%) | B (80%< substrate protein remaining %≤ 100%) | A (0% ≤ substrate protein remaining % ≤ 80%) | A (0% ≤ substrate protein remaining % ≤ 80%) | – | – | – | – | – | – |
| Cc1nc(C2CCN(Cc3ccc4c(c3)C(=O)N(C3CCC(=O)NC3=O)C4=O)CC2)c2c3c(sc2n1)CCC3 (centres unmarked) [GT-06651, 2-(2,6-dioxopiperidin-3-yl)-5-((4-(2-methyl-6,7-dihydro-5H-cyclopenta[4,5]thieno[2,3-d]pyrimidin-4-yl)piperidin-1-yl)methyl)isoindoline-1,3-dione] | – | 1000 to 1500 nM | – | – | – | – | – | B (80%< substrate protein remaining %≤ 100%) | A (0% ≤ substrate protein remaining % ≤ 80%) | B (80%< substrate protein remaining %≤ 100%) | B (80%< substrate protein remaining %≤ 100%) | A (0% ≤ substrate protein remaining % ≤ 80%) | B (80%< substrate protein remaining %≤ 100%) |
| O=C1CCC(N2Cc3cc(CN4CCN(c5ncnc(Cl)c5Cl)CC4)ccc3C2=O)C(=O)N1 (centres unmarked) [GT-04501, 3-(5-((4-(5,6-dichloropyrimidin-4-yl)piperazin-1-yl)methyl)-1-oxoisoindolin-2-yl)piperidine-2,6-dione] | A (0% ≤ substrate protein remaining % ≤ 80%) | < 500 nM | A (0% ≤ substrate protein remaining % ≤ 80%) | A (0% ≤ substrate protein remaining % ≤ 80%) | A (0% ≤ substrate protein remaining % ≤ 80%) | A (0% ≤ substrate protein remaining % ≤ 80%) | A (0% ≤ substrate protein remaining % ≤ 80%) | – | – | – | – | – | – |
| O=C1CCC(N2Cc3cc(CN4CCC(c5ccccc5C(F)(F)F)CC4)ccc3C2=O)C(=O)N1 (centres unmarked) [GT-04488, 3-(1-oxo-5-((4-(2-(trifluoromethyl)phenyl)piperidin-1-yl)methyl)isoindolin-2-yl)piperidine-2,6-dione] | B (80%< substrate protein remaining %≤ 100%) | 500 to 1000 nM | B (80%< substrate protein remaining %≤ 100%) | A (0% ≤ substrate protein remaining % ≤ 80%) | B (80%< substrate protein remaining %≤ 100%) | A (0% ≤ substrate protein remaining % ≤ 80%) | A (0% ≤ substrate protein remaining % ≤ 80%) | – | – | – | – | – | – |
| O=C1CCC(N2Cc3cc(CN4CCC(c5ccnc(F)c5F)CC4)ccc3C2=O)C(=O)N1 (centres unmarked) [GT-04556, 3-(5-((4-(2,3-difluoropyridin-4-yl)piperidin-1-yl)methyl)-1-oxoisoindolin-2-yl)piperidine-2,6-dione] | A (0% ≤ substrate protein remaining % ≤ 80%) | 500 to 1000 nM | A (0% ≤ substrate protein remaining % ≤ 80%) | A (0% ≤ substrate protein remaining % ≤ 80%) | A (0% ≤ substrate protein remaining % ≤ 80%) | A (0% ≤ substrate protein remaining % ≤ 80%) | A (0% ≤ substrate protein remaining % ≤ 80%) | – | – | – | – | – | – |
| O=C1CCC(N2Cc3cc(CNC45CC6CC(CC(C6)C4)C5)ccc3C2=O)C(=O)N1 (centres unmarked) [GT-06913, 3-(5-((((3s,5s,7s)-adamantan-1-yl)amino)methyl)-1-oxoisoindolin-2-yl)piperidine-2,6-dione] | – | 1500 to 1900 nM | – | – | – | – | – | A (0% ≤ substrate protein remaining % ≤ 80%) | A (0% ≤ substrate protein remaining % ≤ 80%) | A (0% ≤ substrate protein remaining % ≤ 80%) | B (80%< substrate protein remaining %≤ 100%) | A (0% ≤ substrate protein remaining % ≤ 80%) | A (0% ≤ substrate protein remaining % ≤ 80%) |
| O=C1CCC(N2Cc3cc(CN4CCN(c5ccnc(Cl)c5Br)CC4)ccc3C2=O)C(=O)N1 (centres unmarked) [GT-04616, 3-(5-((4-(3-bromo-2-chloropyridin-4-yl)piperazin-1-yl)methyl)-1-oxoisoindolin-2-yl)piperidine-2,6-dione] | B (80%< substrate protein remaining %≤ 100%) | < 500 nM | B (80%< substrate protein remaining %≤ 100%) | B (80%< substrate protein remaining %≤ 100%) | B (80%< substrate protein remaining %≤ 100%) | B (80%< substrate protein remaining %≤ 100%) | A (0% ≤ substrate protein remaining % ≤ 80%) | – | – | – | – | – | – |
| O=C1CCC(N2Cc3cc(CN4CC(C5CCOc6cc(F)ccc65)C4)ccc3C2=O)C(=O)N1 (centres unmarked) [GT-04700, 3-(5-((3-(7-fluorochroman-4-yl)azetidin-1-yl)methyl)-1-oxoisoindolin-2-yl)piperidine-2,6-dione] | A (0% ≤ substrate protein remaining % ≤ 80%) | 500 to 1000 nM | B (80%< substrate protein remaining %≤ 100%) | B (80%< substrate protein remaining %≤ 100%) | A (0% ≤ substrate protein remaining % ≤ 80%) | A (0% ≤ substrate protein remaining % ≤ 80%) | A (0% ≤ substrate protein remaining % ≤ 80%) | – | – | – | – | – | – |
